Assay results from patent publication US6884802B2, “6-heteroarylphenanthridines” (ALTANA Pharma AG, priority 2000, dated 2005).

These molecules were tested on PDE4 (assay: Inhibition of PDE4 activity ([3H]cAMP hydrolysis, cytosol from human neutrophils)). Details: 0.5 μM cAMP, Motapizone 1 μM included to suppress PDE3, 37° C.
Assay type: biochemical
Procedure: Method for Measuring Inhibition of PDE4 Activity
PDE4 activity was determined as described by Thompson et al. (Adv Cycl Nucl Res 10: 69-92, 1979) with some modifications (Bauer and Schwabe, Naunyn-Schmiedeberg's Arch Pharmacol 311: 193-198, 1980). At a final assay volume of 200 μl (96 well microtiter plates) the assay mixture contained 20 mM Tris (pH 7.4), 5 mM MgCl2, 0.5 μM cAMP, [^3H]cAMP (about 30,000 cpm/assay), the test compound and an aliquot of cytosol from human neutrophils which mainly contains PDE4 activity as described by Schudt et al. (Naunyn-Schmiedeberg's Arch Pharmacol 344: 682-690, 1991); the PDE3-specific inhibitor Motapizone (1 μM) was included to suppress PDE3 activity originating from contaminating platelets. Serial dilutions of the compounds were prepared in DMSO and further diluted 1:100 (v/v) in the assays to obtain the desired final concentrations of the inhibitors at a DMSO concentration of 1% (v/v) which by itself only slightly affected PDE4 activity.
After preincubation for 5 min at 37° C., the reaction was started by the addition of substrate (cAMP) and the assays were incubated for further 15 min at 37° C. 50 μl of 0.2 N HCl was added to stop the reaction and the assays were left on ice for about 10 min. Following incubation with 25 μg 5′-nucleotidase (Crotalus atrox snake venom) for 10 min at 37° C., the assays were loaded on QAE Sephadex A-25 (1 ml bed volume). The columns were eluted with 2 ml of 30 mM ammonium formiate (pH 6.0) and the eluate was counted for radioactivity. Results were corrected for blank values (measured in the presence of denatured protein) which were below 5% of total radioactivity. […] The IC50-values for the compounds according to the invention for the inhibition of the PDE4 activity were determined from the concentration-inhibition curves by nonlinear-regression.
For `COc1cc2c(cc1OC)[C@@H]1CCCC[C@@H]1N=C2c1cccs1` (relative stereo) [Compound 7, cis-8,9-Dimethoxy-6-(thiophen-2-yl)-1,2,3,4,4a,10b-hexahydrophenanthridine], the “Inhibition of PDE4 activity [measured as −logC50 (mol/l)]” value was 8.14 −log(mol/l). With `COc1cc2c(cc1OC)[C@@H]1CCCC[C@@H]1N=C2c1ccc(C)s1` (relative stereo) [Compound 8, cis-8,9-Dimethoxy-6-(5-methyl-thiophen-2-yl)-1,2,3,4,4a,10b-hexahydrophenanthridine] the “Inhibition of PDE4 activity [measured as −logC50 (mol/l)]” value was 8.19 −log(mol/l). In the case of `COc1cc2c(cc1OC)[C@@H]1CCCC[C@@H]1N=C2c1ccsc1` (relative stereo) [Compound 9, cis-8,9-Dimethoxy-6-(thiophen-3-yl)-1,2,3,4,4a,10b-hexahydrophenanthridine], the “Inhibition of PDE4 activity [measured as −logC50 (mol/l)]” value is reported as 7.45 −log(mol/l). `COc1cc2c(cc1OC)[C@@H]1CCCC[C@@H]1N=C2c1cc2ccccc2[nH]1.O=C(O)C(F)(F)F` (relative stereo) [Compound 10, cis-8,9-Dimethoxy-6-(1H-indol-2-yl)-1,2,3,4,4a,10b-hexahydrophenanthridine trifluoroacetate] was tested, and the “Inhibition of PDE4 activity [measured as −logC50 (mol/l)]” value was 8.19 −log(mol/l). `COc1cc2c(cc1OC)[C@@H]1CCCC[C@@H]1N=C2c1cc2cc(F)ccc2[nH]1.O=C(O)C(F)(F)F` (relative stereo) [Compound 11, cis-8,9-Dimethoxy-6-(5-fluoro-1H-indol-2-yl)-1,2,3,4,4a,10b-hexahydrophenanthridine trifluoroacetate] was tested, and the “Inhibition of PDE4 activity [measured as −logC50 (mol/l)]” value was 8.14 −log(mol/l). With `COc1ccc2cc(C3=N[C@H]4CCCC[C@H]4c4cc(OC)c(OC)cc43)[nH]c2c1.O=C(O)C(F)(F)F` (relative stereo) [Compound 12, cis-8,9-Dimethoxy-6-(6-methoxy-1H-indol-2-yl)-1,2,3,4,4a,10b-hexahydrophenanthridine trifluoroacetate] the “Inhibition of PDE4 activity [measured as −logC50 (mol/l)]” value was 8.27 −log(mol/l). `COc1cc2c(cc1OC)[C@@H]1CCCC[C@@H]1N=C2c1ccc2ccccc2n1` (relative stereo) [Compound 15, cis-8,9-Dimethoxy-6-(quinolin-2-yl)-1,2,3,4,4a,10b-hexahydrophenanthridine] was tested, and the “Inhibition of PDE4 activity [measured as −logC50 (mol/l)]” value was 7.68 −log(mol/l). In the case of `COc1cc2c(cc1OC)[C@@H]1CCCC[C@@H]1N=C2c1occc1C` (relative stereo) [Compound 16, cis-8,9-Dimethoxy-6-(3-methyl-furan-2-yl)-1,2,3,4,4a,10b-hexahydrophenanthridine], the “Inhibition of PDE4 activity [measured as −logC50 (mol/l)]” value is reported as 7.42 −log(mol/l). `COc1cc2c(cc1OC)[C@@H]1CCCC[C@@H]1N=C2c1cc2ccccc2s1` (relative stereo) [Compound 17, cis-8,9-Dimethoxy-6-(benzo[b]thiophen-2-yl)-1,2,3,4,4a,10b-hexahydrophenanthridine] was tested, and the “Inhibition of PDE4 activity [measured as −logC50 (mol/l)]” value was 8.84 −log(mol/l). `COc1cc2c(cc1OC)[C@@H]1CCCC[C@@H]1N=C2c1oc2ccccc2c1C` (relative stereo) [Compound 20, cis-8,9-Dimethoxy-6-(3-methyl-benzofuran-2-yl)-1,2,3,4,4a,10b-hexahydrophenanthridine] was tested, and the “Inhibition of PDE4 activity [measured as −logC50 (mol/l)]” value was 8.53 −log(mol/l). With `COc1cc2c(cc1OC)[C@@H]1CCCC[C@@H]1N=C2c1cc2cccc(OC)c2o1` (relative stereo) [Compound 21, cis-8,9-Dimethoxy-6-(7-methoxy-benzofuran-2-yl)-1,2,3,4,4a,10b-hexahydrophenanthridine] the “Inhibition of PDE4 activity [measured as −logC50 (mol/l)]” value was 8.51 −log(mol/l). With `COc1ccc2oc(C3=N[C@H]4CCCC[C@H]4c4cc(OC)c(OC)cc43)cc2c1` (relative stereo) [Compound 23, cis-8,9-Dimethoxy-6-(5-methoxy-benzofuran-2-yl)-1,2,3,4,4a,10b-hexahydrophenanthridine] the “Inhibition of PDE4 activity [measured as −logC50 (mol/l)]” value was 8.33 −log(mol/l). In the case of `COc1cc2c(cc1OC)[C@@H]1CCCC[C@@H]1N=C2c1ccnc2ccccc12` [Compound 1, (−)-cis-8,9-Dimethoxy-6-quinolin-4-yl-1,2,3,4,4a,10b-hexahydrophenanthridine], the “Inhibition of PDE4 activity [measured as −logC50 (mol/l)]” value is reported as 7.4 −log(mol/l).
